{
  "source": "paper PMC5218480",
  "about": "(PLoS ONE, 2017)",
  "system": "MV-4-11 cells",
  "test": "Gene expression microarray analysis (Affymetrix PrimeView) and GSEA",
  "format": "cell-based, human",
  "design": "RFU PODN (11730768_x_at) / Fold change /veh PODN (11730768_x_at) / RFU LINC00158 (11744669_a_at) / Fold change /veh LINC00158 (11744669_a_at) / RFU DUSP10 (11751237_a_at) / Fold change /veh DUSP10 (11751237_a_at) / RFU ID3 (11757404_x_at) / Fold change /veh ID3 (11757404_x_at) / RFU PLEKHG5 (11737974_s_at) / Fold change /veh PLEKHG5 (11737974_s_at) / RFU LRRC4B (11730491_at) / Fold change /veh LRRC4B (11730491_at) / RFU GIMAP4 (11747438_a_at) / Fold change /veh GIMAP4 (11747438_a_at) / RFU KRT8 (11758183_x_at) / Fold change /veh KRT8 (11758183_x_at) / RFU CNN1 (11734310_a_at) / Fold change /veh CNN1 (11734310_a_at) / RFU VPS37D (11726825_at) / Fold change /veh VPS37D (11726825_at) / RFU C10orf10 (11716522_x_at) / Fold change /veh C10orf10 (11716522_x_at) / RFU KIR2DL2 /// KIR2DL4 /// KIR2DL5A /// KIR2DL5B /// KIR2DS1 /// KIR2DS2 /// KIR2DS3 /// KIR2DS4 /// KIR3DL3 /// KIR3DL3 /// KIR3DS1 (11738374_at) / Fold change /veh KIR2DL2 /// KIR2DL4 /// KIR2DL5A /// KIR2DL5B /// KIR2DS1 /// KIR2DS2 /// KIR2DS3 /// KIR2DS4 /// KIR3DL3 /// KIR3DL3 /// KIR3DS1 (11738374_at) / RFU C1QL1 (11718748_at) / Fold change /veh C1QL1 (11718748_at) / RFU TMPRSS4 (11747572_a_at) / Fold change /veh TMPRSS4 (11747572_a_at) / RFU HAMP (11756126_x_at) / Fold change /veh HAMP (11756126_x_at) / RFU RNFT2 (11725882_a_at) / Fold change /veh RNFT2 (11725882_a_at) / RFU NR4A2 (11747474_a_at) / Fold change /veh NR4A2 (11747474_a_at) / RFU ABCC12 (11746883_a_at) / Fold change /veh ABCC12 (11746883_a_at) / RFU TMEM136 (11760407_x_at) / Fold change /veh TMEM136 (11760407_x_at) / RFU CLDN22 /// WWC2 (11732394_at) / Fold change /veh CLDN22 /// WWC2 (11732394_at) / RFU HLA-DPB1 (11760878_x_at) / Fold change /veh HLA-DPB1 (11760878_x_at) / RFU SPINT1 (11716480_a_at) / Fold change /veh SPINT1 (11716480_a_at) / RFU GAP43 (11754022_s_at) / Fold change /veh GAP43 (11754022_s_at) / RFU A4GNT (11735810_at) / Fold change /veh A4GNT (11735810_at) / RFU PRB3 (11715151_x_at) / Fold change /veh PRB3 (11715151_x_at) / RFU TUBB4B (11761932_at) / Fold change /veh TUBB4B (11761932_at) / RFU CAPN14 (11732068_a_at) / Fold change /veh CAPN14 (11732068_a_at) / RFU TMCC2 (11721928_a_at) / Fold change /veh TMCC2 (11721928_a_at) / RFU IRGQ (11745062_a_at) / Fold change /veh IRGQ (11745062_a_at) / RFU FAM174B (11720279_a_at) / Fold change /veh FAM174B (11720279_a_at) / RFU TMPRSS4 (11748680_a_at) / Fold change /veh TMPRSS4 (11748680_a_at) / RFU FAM212B (11763350_a_at) / Fold change /veh FAM212B (11763350_a_at) / RFU PLEKHG5 (11743358_a_at) / Fold change /veh PLEKHG5 (11743358_a_at) / RFU ZSCAN30 (11745921_a_at) / Fold change /veh ZSCAN30 (11745921_a_at) / RFU CMKLR1 (11741424_a_at) / Fold change /veh CMKLR1 (11741424_a_at) / RFU LOC101060620 /// MAPK8IP1 (11723275_at) / Fold change /veh LOC101060620 /// MAPK8IP1 (11723275_at) / RFU SPTSSB (11747773_x_at) / Fold change /veh SPTSSB (11747773_x_at) / RFU PRSS12 (11739890_at) / Fold change /veh PRSS12 (11739890_at) / RFU BIN1 (11741810_x_at) / Fold change /veh BIN1 (11741810_x_at) / RFU WNT11 (11732464_a_at) / Fold change /veh WNT11 (11732464_a_at) / RFU C10orf10 (11716521_a_at) / Fold change /veh C10orf10 (11716521_a_at) / RFU C5orf56 (11738089_at) / Fold change /veh C5orf56 (11738089_at) / RFU CYB561 (11721691_x_at) / Fold change /veh CYB561 (11721691_x_at) / RFU ANKRD19P (11752326_a_at) / Fold change /veh ANKRD19P (11752326_a_at) / RFU OR2T12 /// OR2T33 /// OR2T8 (11738714_s_at) / Fold change /veh OR2T12 /// OR2T33 /// OR2T8 (11738714_s_at) / RFU VCAN (11748164_a_at) / Fold change /veh VCAN (11748164_a_at) / RFU JSRP1 (11732532_at) / Fold change /veh JSRP1 (11732532_at) / RFU KRTAP10-11 (11738290_x_at) / Fold change /veh KRTAP10-11 (11738290_x_at) / RFU MYO3A (11730013_a_at) / Fold change /veh MYO3A (11730013_a_at) / RFU EBF3 (11725865_a_at) / Fold change /veh EBF3 (11725865_a_at) / RFU CAMK2N1 (11719241_x_at) / Fold change /veh CAMK2N1 (11719241_x_at) / RFU C5orf56 (11738088_a_at) / Fold change /veh C5orf56 (11738088_a_at) / RFU OLFML3 (11715873_a_at) / Fold change /veh OLFML3 (11715873_a_at) / RFU LOC100653217 /// NTM (11731650_a_at) / Fold change /veh LOC100653217 /// NTM (11731650_a_at) / RFU MAPK11 (11762145_a_at) / Fold change /veh MAPK11 (11762145_a_at) / RFU FIZ1 (11724087_x_at) / Fold change /veh FIZ1 (11724087_x_at) / RFU OASL (11726364_x_at) / Fold change /veh OASL (11726364_x_at) / RFU SOX15 (11748057_x_at) / Fold change /veh SOX15 (11748057_x_at) / RFU CD79A (11719716_a_at) / Fold change /veh CD79A (11719716_a_at) / RFU HIST1H1D (11736915_at) / Fold change /veh HIST1H1D (11736915_at) / RFU CASKIN2 (11723855_a_at) / Fold change /veh CASKIN2 (11723855_a_at) / RFU LOC730098 (11760151_x_at) / Fold change /veh LOC730098 (11760151_x_at) / RFU OR4N2 (11742367_at) / Fold change /veh OR4N2 (11742367_at) / RFU PRRT2 (11749266_a_at) / Fold change /veh PRRT2 (11749266_a_at) / RFU SNX32 (11753110_a_at) / Fold change /veh SNX32 (11753110_a_at) / RFU CDHR5 (11726645_a_at) / Fold change /veh CDHR5 (11726645_a_at) / RFU RCAN1 (11760418_a_at) / Fold change /veh RCAN1 (11760418_a_at) / RFU FAM167A (11723789_a_at) / Fold change /veh FAM167A (11723789_a_at) / RFU FAM26E (11764081_at) / Fold change /veh FAM26E (11764081_at) / RFU ISYNA1 (11749810_s_at) / Fold change /veh ISYNA1 (11749810_s_at) / RFU ACY1 (11761880_at) / Fold change /veh ACY1 (11761880_at) / RFU 11764098_at / Fold change /veh 11764098_at / RFU SAMD14 (11745864_x_at) / Fold change /veh SAMD14 (11745864_x_at) / RFU NPB (11741838_a_at) / Fold change /veh NPB (11741838_a_at) / RFU TMPRSS6 (11731388_a_at) / Fold change /veh TMPRSS6 (11731388_a_at) / RFU KRTAP10-2 (11738614_at) / Fold change /veh KRTAP10-2 (11738614_at) / RFU ARHGAP8 /// PRR5-ARHGAP8 (11727945_x_at) / Fold change /veh ARHGAP8 /// PRR5-ARHGAP8 (11727945_x_at) / RFU KRTAP5-7 /// NADSYN1 (11734609_at) / Fold change /veh KRTAP5-7 /// NADSYN1 (11734609_at) / RFU RASL12 (11751679_a_at) / Fold change /veh RASL12 (11751679_a_at) / RFU CDKN2B (11736163_a_at) / Fold change /veh CDKN2B (11736163_a_at) / RFU PRF1 (11729649_at) / Fold change /veh PRF1 (11729649_at) / RFU, ZNF638 /// ZNF638-IT1 / Fold change vs veh, ZNF638 /// ZNF638-IT1 / RFU, PANK3 / Fold change vs veh, PANK3 / RFU, SH3YL1 / Fold change vs veh, SH3YL1 / RFU, ZEB2 / Fold change vs veh, ZEB2 / RFU, NRIP1 / Fold change vs veh, NRIP1 / RFU, PTTG1IP / Fold change vs veh, PTTG1IP / RFU, CAPN2 / Fold change vs veh, CAPN2 / RFU, MED14 / Fold change vs veh, MED14 / RFU, SNORA58 / Fold change vs veh, SNORA58 / RFU, C1orf63 / Fold change vs veh, C1orf63 / RFU, LRRFIP1 / Fold change vs veh, LRRFIP1 / RFU, NDUFAF7 / Fold change vs veh, NDUFAF7 / RFU, SLC12A2 / Fold change vs veh, SLC12A2 / RFU, IBTK / Fold change vs veh, IBTK / RFU, ESF1 / Fold change vs veh, ESF1 / Fold change vs veh, TMEM50B / RFU, TAOK1 / Fold change vs veh, TAOK1 / RFU, ACBD3 / Fold change vs veh, ACBD3 / RFU, TMA16 / Fold change vs veh, TMA16 / RFU, RWDD3 / Fold change vs veh, RWDD3 / RFU, BCAT1 / Fold change vs veh, BCAT1 / RFU, EDEM3 / Fold change vs veh, EDEM3 / RFU, TMEM33 / Fold change vs veh, TMEM33 / RFU, WDR75 / Fold change vs veh, WDR75 / RFU, AHCTF1 / Fold change vs veh, AHCTF1 / RFU, TFRC / Fold change vs veh, TFRC / RFU, ZDHHC17 / Fold change vs veh, ZDHHC17 / RFU, NOM1 / Fold change vs veh, NOM1 / RFU, ARL8B / Fold change vs veh, ARL8B / RFU, ZBTB11 / Fold change vs veh, ZBTB11 / RFU, TAMM41 / Fold change vs veh, TAMM41 / RFU, KIAA1704 /// LOC100996395 / Fold change vs veh, KIAA1704 /// LOC100996395 / RFU, ING1 / Fold change vs veh, ING1 / RFU, TRMT61B / Fold change vs veh, TRMT61B / RFU, FUBP3 / Fold change vs veh, FUBP3 / RFU, TP53 / Fold change vs veh, TP53 / RFU, TNKS2 / Fold change vs veh, TNKS2 / RFU, ZFP14 / Fold change vs veh, ZFP14 / RFU, ACTR2 / Fold change vs veh, ACTR2 / RFU, PPP3R1 / Fold change vs veh, PPP3R1 / RFU, PIK3R1 / Fold change vs veh, PIK3R1 / RFU, HNRNPA1 / Fold change vs veh, HNRNPA1 / RFU, RNF170 / Fold change vs veh, RNF170 / RFU, ZNF28 / Fold change vs veh, ZNF28 / RFU, RNGTT / Fold change vs veh, RNGTT / RFU, OGT / Fold change vs veh, OGT / RFU, BRD1 / Fold change vs veh, BRD1 / RFU, MARS / Fold change vs veh, MARS / RFU, ZNF655 / Fold change vs veh, ZNF655 / RFU, FAHD1 / Fold change vs veh, FAHD1 / RFU, BDP1 / Fold change vs veh, BDP1 / RFU, LRRCC1 / Fold change vs veh, LRRCC1 / RFU, ARID1A / Fold change vs veh, ARID1A / RFU, ZNF146 / Fold change vs veh, ZNF146 / RFU, ZNF330 / Fold change vs veh, ZNF330 / RFU, GPN3 / Fold change vs veh, GPN3 / RFU, C9orf123 / Fold change vs veh, C9orf123 / RFU, N4BP2L2 / Fold change vs veh, N4BP2L2 / RFU, ARFIP1 / Fold change vs veh, ARFIP1 / RFU, FAM179B / Fold change vs veh, FAM179B / RFU, BCL10 / Fold change vs veh, BCL10 / RFU, UHRF1BP1L / Fold change vs veh, UHRF1BP1L / RFU, BET1 / Fold change vs veh, BET1 / RFU, CNOT2 / Fold change vs veh, CNOT2 / RFU, ZNF268 / Fold change vs veh, ZNF268 / Fold change vs veh, ZNF507 / RFU, DGCR2 / Fold change vs veh, DGCR2 / RFU, WDSUB1 / Fold change vs veh, WDSUB1 / Fold change vs veh, HSP90B1 /// MIR3652 / RFU, ADSS / Fold change vs veh, ADSS / RFU, GK / Fold change vs veh, GK / RFU, ZNF148 / Fold change vs veh, ZNF148 / RFU, TAF9 / Fold change vs veh, TAF9 / RFU, SLC1A5 / Fold change vs veh, SLC1A5 / RFU, SLMO2 / Fold change vs veh, SLMO2 / RFU, ABCC4 / Fold change vs veh, ABCC4 / RFU, LOC101060439 /// RAP1B / Fold change vs veh, LOC101060439 /// RAP1B / RFU, RFX7 / Fold change vs veh, RFX7 / RFU, GTPBP10 / Fold change vs veh, GTPBP10 / RFU, CNEP1R1 / Fold change vs veh, CNEP1R1 / RFU, BIVM-ERCC5 /// ERCC5 / Fold change vs veh, BIVM-ERCC5 /// ERCC5 / RFU, ILF3 / Fold change vs veh, ILF3 / RFU 11762660_at / Fold change /veh 11762660_at / RFU VCAN (11757783_s_at) / Fold change /veh VCAN (11757783_s_at) / RFU DDX43 (11728927_at) / Fold change /veh DDX43 (11728927_at) / RFU KRT8 (11758188_x_at) / Fold change /veh KRT8 (11758188_x_at) / RFU NKD1 (11759106_at) / Fold change /veh NKD1 (11759106_at) / RFU SRD5A1 (11742802_a_at) / Fold change /veh SRD5A1 (11742802_a_at) / RFU TPSAB1 /// TPSB2 (11721975_s_at) / Fold change /veh TPSAB1 /// TPSB2 (11721975_s_at) / RFU GSTM3 (11746129_a_at) / Fold change /veh GSTM3 (11746129_a_at) / RFU IL23R (11737362_x_at) / Fold change /veh IL23R (11737362_x_at) / RFU TMEM51 (11727254_a_at) / Fold change /veh TMEM51 (11727254_a_at) / RFU PIWIL2 (11732686_x_at) / Fold change /veh PIWIL2 (11732686_x_at) / RFU ORM1 (11744905_x_at) / Fold change /veh ORM1 (11744905_x_at) / RFU CCDC152 (11743942_at) / Fold change /veh CCDC152 (11743942_at) / RFU ECM1 (11717891_a_at) / Fold change /veh ECM1 (11717891_a_at) / RFU IL23R (11748794_a_at) / Fold change /veh IL23R (11748794_a_at) / RFU TNFAIP8L3 (11732012_x_at) / Fold change /veh TNFAIP8L3 (11732012_x_at) / RFU MBOAT4 (11741988_at) / Fold change /veh MBOAT4 (11741988_at) / RFU 11764193_at / Fold change /veh 11764193_at / RFU TMEM53 (11763286_at) / Fold change /veh TMEM53 (11763286_at) / RFU MAGEB2 (11727129_at) / Fold change /veh MAGEB2 (11727129_at) / RFU TMEM200A (11744735_a_at) / Fold change /veh TMEM200A (11744735_a_at) / RFU CCDC152 (11751479_a_at) / Fold change /veh CCDC152 (11751479_a_at) / RFU FAM211A (11726209_a_at) / Fold change /veh FAM211A (11726209_a_at) / RFU RGS16 (11746705_a_at) / Fold change /veh RGS16 (11746705_a_at) / RFU VCAN (11755009_s_at) / Fold change /veh VCAN (11755009_s_at) / RFU RHOB (11743442_s_at) / Fold change /veh RHOB (11743442_s_at) / RFU RGS16 (11720943_a_at) / Fold change /veh RGS16 (11720943_a_at) / RFU RGS16 (11720944_at) / Fold change /veh RGS16 (11720944_at) / RFU, VPS4B / Fold change vs veh, VPS4B / RFU, CREB1 / Fold change vs veh, CREB1 / RFU, DNAJC13 / Fold change vs veh, DNAJC13 / RFU, GNAQ / Fold change vs veh, GNAQ / RFU, CDK5R1 / Fold change vs veh, CDK5R1 / RFU, ZRANB3 / Fold change vs veh, ZRANB3 / RFU, CUL4A / Fold change vs veh, CUL4A / RFU, CCNY / Fold change vs veh, CCNY / RFU, UFL1 / Fold change vs veh, UFL1 / RFU, COG3 / Fold change vs veh, COG3 / RFU, DIAPH2 / Fold change vs veh, DIAPH2 / RFU, SKA2 / Fold change vs veh, SKA2 / RFU, AFF3 / Fold change vs veh, AFF3 / RFU, LMF1 / Fold change vs veh, LMF1 / RFU, IPO11 / Fold change vs veh, IPO11 / RFU, DFFB / Fold change vs veh, DFFB / RFU, FOXP1 / Fold change vs veh, FOXP1 / RFU, CARD8 / Fold change vs veh, CARD8 / RFU, STRN3 / Fold change vs veh, STRN3 / RFU, ADK / Fold change vs veh, ADK / RFU, RASSF2 / Fold change vs veh, RASSF2 / RFU, WIPF1 / Fold change vs veh, WIPF1 / RFU, LARP1B / Fold change vs veh, LARP1B / RFU, RASA1 / Fold change vs veh, RASA1 / RFU, RB1 / Fold change vs veh, RB1 / RFU, PPFIA1 / Fold change vs veh, PPFIA1 / RFU, MAT2A / Fold change vs veh, MAT2A / RFU, CCT5 / Fold change vs veh, CCT5 / RFU, WDR92 / Fold change vs veh, WDR92 / RFU, CUX1 / Fold change vs veh, CUX1 / RFU, TTC7A / Fold change vs veh, TTC7A / RFU, TMEM135 / Fold change vs veh, TMEM135 / RFU, DEPTOR / Fold change vs veh, DEPTOR / RFU, CPM / Fold change vs veh, CPM / RFU, DNAJB6 / Fold change vs veh, DNAJB6 / RFU, CACNA2D3 / Fold change vs veh, CACNA2D3 / RFU, DTX4 / Fold change vs veh, DTX4 / RFU, TFCP2 / Fold change vs veh, TFCP2 / RFU, GMCL1 /// GMCL1P1 / Fold change vs veh, GMCL1 /// GMCL1P1 / RFU, AEBP2 / Fold change vs veh, AEBP2 / RFU, SNHG1 /// SNORD22 /// SNORD25 /// SNORD26 /// SNORD27 /// SNORD28 /// SNORD29 /// SNORD31 / Fold change vs veh, SNHG1 /// SNORD22 /// SNORD25 /// SNORD26 /// SNORD27 /// SNORD28 /// SNORD29 /// SNORD31 / Fold change (Aza/veh), C12orf56 (ProbeSet 11735607_a_at) / Fold change (ACY-1035/veh), C12orf56 (ProbeSet 11735607_a_at) / Fold change (Aza/veh), FGFR1OP (ProbeSet 11751329_s_at) / Fold change (ACY-1035/veh), FGFR1OP (ProbeSet 11751329_s_at) / Fold change (Aza/veh), VPS36 (ProbeSet 11739960_a_at) / Fold change (ACY-1035/veh), VPS36 (ProbeSet 11739960_a_at) / RFU SYPL1 (11715823_x_at) / Fold change /veh SYPL1 (11715823_x_at) / RFU IGFBP7 (11715501_s_at) / Fold change /veh IGFBP7 (11715501_s_at) / RFU REEP3 (11722064_at) / Fold change /veh REEP3 (11722064_at) / RFU IGLL1 (11728026_x_at) / Fold change /veh IGLL1 (11728026_x_at): dose or concentration left out as unconfirmed",
  "settings": "MV-4-11 cells, 48 hours",
  "data": [
    {"smiles": "Nc1ccc(-c2cccs2)cc1NC(=O)c1ccc2c(c1)cc(C1CC1)n2CCN1CCOCC1", "note": "[ACY-1035]", "values": [
      {"measurement": "Fold change /veh C10orf10 (11716521_a_at)", "value": 0.91}
    ]}
  ]
}
